Laboratory results from US8003660B2, “Modulators of muscarinic receptors” (Vertex Pharmaceuticals Incorporated, priority 2006, dated 2011).
Like-named read-outs stand apart in the source and are kept apart here.

Assays:
Format in all cases: cell-based
[1] = target: T1, M1 muscarinic receptor (Homo sapiens, UniProt P11229); assay: Functional mobilization of intracellular calcium (FLIPR) in CHO cells expressing M1; settings: for EC50: CHO cells expressing M1, FLIPR calcium; for Emax: CHO; for M1 Activity: CHO cells expressing M1, FLIPR calcium assay
T1 construct: expressed in transfected cells; host or cells: CHO (M1-CHO)
T1 sequence (P11229 1-460): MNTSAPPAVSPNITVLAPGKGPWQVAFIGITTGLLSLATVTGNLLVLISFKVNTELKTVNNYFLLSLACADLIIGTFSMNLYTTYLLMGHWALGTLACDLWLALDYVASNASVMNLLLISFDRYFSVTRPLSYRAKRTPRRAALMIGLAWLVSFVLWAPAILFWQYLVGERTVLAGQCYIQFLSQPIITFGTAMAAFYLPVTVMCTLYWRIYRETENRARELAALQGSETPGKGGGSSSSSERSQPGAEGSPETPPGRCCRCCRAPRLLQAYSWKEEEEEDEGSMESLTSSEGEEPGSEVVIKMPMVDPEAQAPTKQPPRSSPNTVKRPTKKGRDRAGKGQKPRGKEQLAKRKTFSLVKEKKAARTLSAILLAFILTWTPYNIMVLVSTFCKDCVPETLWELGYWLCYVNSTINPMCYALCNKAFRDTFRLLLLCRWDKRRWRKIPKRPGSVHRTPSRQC
In short: (§1)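 Recombinant CHO cells loaded with Fluo-3 AM or Calcium 3 dye in pH 7.4 buffer containing 1 mM probenecid, with 0.5% final DMSO. For agonism, compound is added directly. For inhibition, it is preincubated 15 min, or co-applied, before carbachol at EC80. FLIPR fluorescence (ex 488, em 540 nm) is recorded for 60 s.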

[2] = target: T2, M2 muscarinic receptor (Homo sapiens, UniProt P08172); assay: Functional mobilization of intracellular calcium (FLIPR) in CHO cells expressing M2; settings: for EC50: CHO cells expressing M2, FLIPR calcium; for Emax: CHO; for M2 Activity: CHO cells expressing M2, FLIPR calcium assay
T2 construct: expressed in transfected cells; host or cells: CHO (M2-CHO)
T2 sequence (P08172 1-466): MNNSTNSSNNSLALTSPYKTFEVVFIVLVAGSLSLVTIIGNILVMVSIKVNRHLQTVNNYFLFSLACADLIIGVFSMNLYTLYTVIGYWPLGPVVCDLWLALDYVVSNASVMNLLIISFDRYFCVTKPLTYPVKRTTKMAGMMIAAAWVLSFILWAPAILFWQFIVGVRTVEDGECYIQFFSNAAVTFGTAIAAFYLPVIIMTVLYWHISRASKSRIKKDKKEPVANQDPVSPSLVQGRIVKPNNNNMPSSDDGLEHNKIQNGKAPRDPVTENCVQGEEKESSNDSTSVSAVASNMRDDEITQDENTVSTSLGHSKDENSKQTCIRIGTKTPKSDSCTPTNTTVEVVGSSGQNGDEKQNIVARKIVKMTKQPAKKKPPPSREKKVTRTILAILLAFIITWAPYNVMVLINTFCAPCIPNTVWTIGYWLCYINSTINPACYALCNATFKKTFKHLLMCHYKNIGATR
In short: as §1

[3] = target: T3, M3 muscarinic receptor (Homo sapiens, UniProt P20309); assay: Functional mobilization of intracellular calcium (FLIPR) in CHO cells expressing M3; settings: for EC50: CHO cells expressing M3, FLIPR calcium; for Emax: CHO; for M3 Activity: CHO cells expressing M3, FLIPR calcium assay
T3 construct: expressed in transfected cells; host or cells: CHO (M3-CHO)
T3 sequence (P20309 whole entry): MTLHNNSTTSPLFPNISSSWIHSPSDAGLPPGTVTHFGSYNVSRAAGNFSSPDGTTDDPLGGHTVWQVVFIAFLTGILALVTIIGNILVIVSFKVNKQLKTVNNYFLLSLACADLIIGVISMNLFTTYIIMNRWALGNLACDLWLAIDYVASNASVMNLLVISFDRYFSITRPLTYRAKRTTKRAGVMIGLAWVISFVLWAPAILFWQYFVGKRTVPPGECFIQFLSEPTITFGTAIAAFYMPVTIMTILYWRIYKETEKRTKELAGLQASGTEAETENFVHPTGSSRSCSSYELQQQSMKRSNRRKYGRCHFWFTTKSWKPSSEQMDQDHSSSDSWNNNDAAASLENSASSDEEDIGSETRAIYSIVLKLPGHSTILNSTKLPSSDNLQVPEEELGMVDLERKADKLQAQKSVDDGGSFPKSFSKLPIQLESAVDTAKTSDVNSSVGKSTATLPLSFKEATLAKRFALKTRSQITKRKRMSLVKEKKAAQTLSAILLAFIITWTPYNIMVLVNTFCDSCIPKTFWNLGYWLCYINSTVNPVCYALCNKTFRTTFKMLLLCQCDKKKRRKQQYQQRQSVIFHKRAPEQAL
In short: as §1

[4] = target: T4, M4 muscarinic receptor (Homo sapiens, UniProt P08173); assay: Functional mobilization of intracellular calcium (FLIPR) in CHO cells expressing M4; settings: for EC50: CHO cells expressing M4, FLIPR calcium; for Emax: CHO; for M4 Activity: CHO cells expressing M4, FLIPR calcium assay
T4 construct: expressed in transfected cells; host or cells: CHO (M4-CHO)
T4 sequence (P08173 1-479): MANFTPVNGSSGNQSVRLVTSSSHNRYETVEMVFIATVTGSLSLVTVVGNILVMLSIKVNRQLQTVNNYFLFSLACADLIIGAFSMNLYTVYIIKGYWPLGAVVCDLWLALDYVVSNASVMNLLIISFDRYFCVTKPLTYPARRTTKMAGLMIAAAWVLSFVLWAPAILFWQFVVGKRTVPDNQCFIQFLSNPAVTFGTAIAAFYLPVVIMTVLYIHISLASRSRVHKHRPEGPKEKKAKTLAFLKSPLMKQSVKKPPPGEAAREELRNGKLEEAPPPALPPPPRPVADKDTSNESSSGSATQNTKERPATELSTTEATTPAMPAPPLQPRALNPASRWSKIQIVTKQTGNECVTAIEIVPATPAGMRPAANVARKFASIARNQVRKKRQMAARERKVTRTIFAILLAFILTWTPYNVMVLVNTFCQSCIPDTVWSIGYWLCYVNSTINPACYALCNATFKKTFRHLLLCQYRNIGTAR
In short: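 Calcium flux is read on FLIPR over 60 sec at 488/540 nm in muscarinic-receptor CHO lines. Antagonist mode adds carbachol at EC80 after 15 min compound preincubation or with simultaneous co-application. Agonist mode adds compound alone. Cells carry Fluo-3 or Calcium 3 dye in probenecid-containing pH 7.4 buffer, 0.5% DMSO final.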

[5] = 100% = maximum response obtained with the Carbachol control, read-out: M1 Efficacy
[6] = 100% = maximum response obtained with the Carbachol control, read-out: M2 Efficacy
[7] = 100% = maximum response obtained with the Carbachol control, read-out: M3 Efficacy
[8] = 100% = maximum response obtained with the Carbachol control, read-out: M4 Efficacy
[9] = 100% efficacy = maximum response obtained with the Carbachol control

Compound | EC50 [1] | Emax [1, 5] | EC50 [2] | Emax [2, 6] | EC50 [3] | Emax [3, 7] | EC50 [4] | Emax [4, 8] | M1 Activity [1] | Emax [1, 9] | M2 Activity [2] | Emax [2, 9] | M3 Activity [3] | Emax [3, 9] | M4 Activity [4] | Emax [4, 9]
CCC(=O)N1CCCC(C(=O)N[C@@H]2CCC3(CCN(CCC(C)(C)C)CC3)c3ccccc32)C1 (stereo partly shown) [compound 13] | > 5000 nM | < 25% | > 5 µM | < 25% | > 5 µM | < 25% | < 2000 nM | 25 to 100% |  |  |  |  |  |  |  | 
CC(=O)N1CCC(C(=O)N[C@H]2CCC3(CCN(CCC(C)(C)C)CC3)c3ccccc32)CC1 [compound 191] |  |  |  |  |  |  |  |  | +++ (activity was measured to be less than 2.0 μM) | 25 to 100% | + (activity was measured to be greater than 5.0 μM) | < 25% | + (activity was measured to be greater than 5.0 μM) | < 25% | +++ (activity was measured to be less than 2.0 μM) | 25 to 100%
Cc1cc(C(=O)N[C@H]2CCC3(CCN(CCC(C)(C)C)CC3)c3cc(F)ccc32)nn1C [compound 2] | < 2000 nM | 25 to 100% | < 2 µM | 25 to 100% | > 5 µM | < 25% | < 2000 nM | 25 to 100% |  |  |  |  |  |  |  | 
CC(C)(C)OC(=O)N1CCC2(CC1)C[C@H](NC(=O)C1CCCC1)c1ccccc12 [compound 295] |  |  |  |  |  |  |  |  | + (activity was measured to be greater than 5.0 μM) | < 25% | + (activity was measured to be greater than 5.0 μM) | < 25% | + (activity was measured to be greater than 5.0 μM) | < 25% | + (activity was measured to be greater than 5.0 μM) | < 25%
CCn1ccc(C(=O)N[C@H]2CCC3(CCN(CCC(C)(C)C)CC3)c3ccccc32)n1 [compound 207] |  |  |  |  |  |  |  |  | ++ (activity was measured to be from 2.0 μM to 5.0 μM) | 25 to 100% | + (activity was measured to be greater than 5.0 μM) | < 25% | + (activity was measured to be greater than 5.0 μM) | < 25% | +++ (activity was measured to be less than 2.0 μM) | 25 to 100%
Cc1ccc2c(c1)C(=O)CC21CCN(CCC(C)(C)C)CC1 [compound 288] |  |  |  |  |  |  |  |  | + (activity was measured to be greater than 5.0 μM) | 25 to 100% | + (activity was measured to be greater than 5.0 μM) | < 25% | + (activity was measured to be greater than 5.0 μM) | < 25% | ++ (activity was measured to be from 2.0 μM to 5.0 μM) | 25 to 100%
CC(=O)N[C@H]1CC2(CCN(CC(C)(C)C)CC2)c2ccccc21 [compound 243] |  |  |  |  |  |  |  |  | + (activity was measured to be greater than 5.0 μM) | 25 to 100% | + (activity was measured to be greater than 5.0 μM) | 25 to 100% | + (activity was measured to be greater than 5.0 μM) | < 25% | +++ (activity was measured to be less than 2.0 μM) | 25 to 100%
CC(=O)CCC(=O)N[C@@H]1CCC2(CCN(CCC(C)(C)C)CC2)c2ccccc21 [compound 205] |  |  |  |  |  |  |  |  | +++ (activity was measured to be less than 2.0 μM) | 25 to 100% | + (activity was measured to be greater than 5.0 μM) | < 25% | + (activity was measured to be greater than 5.0 μM) | < 25% | +++ (activity was measured to be less than 2.0 μM) | 25 to 100%
CC(=O)N[C@H]1CC2(CCN(CCC(C)(C)C)CC2)c2ccccc21 [compound 244] |  |  |  |  |  |  |  |  | +++ (activity was measured to be less than 2.0 μM) | 25 to 100% | + (activity was measured to be greater than 5.0 μM) | < 25% | + (activity was measured to be greater than 5.0 μM) | < 25% | +++ (activity was measured to be less than 2.0 μM) | 25 to 100%
CC(=O)N[C@H]1CC2(CCN(CC(=O)N(C)C)CC2)c2ccccc21 [compound 289] |  |  |  |  |  |  |  |  | + (activity was measured to be greater than 5.0 μM) | < 25% | + (activity was measured to be greater than 5.0 μM) | < 25% | + (activity was measured to be greater than 5.0 μM) | < 25% | + (activity was measured to be greater than 5.0 μM) | < 25%
C[C@H](C(=O)N[C@H]1CCC2(CCN(CCC(C)(C)C)CC2)c2cc(F)ccc21)N1CCCC1=O [compound 52] | < 2000 nM | 25 to 100% | < 2 µM | < 25% | > 5 µM | < 25% | < 2000 nM | 25 to 100% |  |  |  |  |  |  |  | 
CN1CC(C(=O)N[C@H]2CCC3(CCN(CCC(C)(C)C)CC3)c3ccccc32)CC1=O (stereo partly shown) [compound 144] | < 2000 nM | 25 to 100% | < 2 µM | 25 to 100% | > 5 µM | < 25% | < 2000 nM | 25 to 100% |  |  |  |  |  |  |  | 
CC(=O)N1CCCCC1C(=O)N[C@H]1CCC2(CCN(CCC(C)(C)C)CC2)c2ccccc21 (stereo partly shown) [compound 41] | < 2000 nM | 25 to 100% | > 5 µM | < 25% | > 5 µM | < 25% | < 2000 nM | 25 to 100% |  |  |  |  |  |  |  | 
C#CCNC(=O)CN1CCC2(CC1)C[C@H](NC(C)=O)c1ccccc12 [compound 262] |  |  |  |  |  |  |  |  | + (activity was measured to be greater than 5.0 μM) | < 25% | + (activity was measured to be greater than 5.0 μM) | < 25% | + (activity was measured to be greater than 5.0 μM) | < 25% | + (activity was measured to be greater than 5.0 μM) | < 25%
CCN(C(=O)C1CCCN1C(C)=O)[C@H]1CCC2(CCN(CCC(C)(C)C)CC2)c2ccccc21 (stereo partly shown) [compound 15] | < 2000 nM | 25 to 100% | > 5 µM | < 25% | > 5 µM | < 25% | < 2000 nM | 25 to 100% |  |  |  |  |  |  |  | 
CC(=O)N1CCCC[C@@H]1C(=O)N[C@H]1CCC2(CCN(CCC(C)(C)C)CC2)c2cc(F)ccc21 [compound 82] | < 2000 nM | 25 to 100% | 2 to 5 µM | < 25% | > 5 µM | < 25% | < 2000 nM | 25 to 100% |  |  |  |  |  |  |  | 
CC(C)[C@@H](C(=O)N[C@H]1CCC2(CCN(CCC(C)(C)C)CC2)c2ccccc21)N1CCCC1=O [compound 167] | < 2000 nM | 25 to 100% | > 5 µM | < 25% | > 5 µM | < 25% | < 2000 nM | 25 to 100% |  |  |  |  |  |  |  | 
